According to patent publication US20160089377A1, “THERAPEUTIC TARGETING OF THE MTOR PATHWAY IN NEURODEVELOPMENTAL AND NEUROPSYCHIATRIC DISEASE” (THE TRUSTEES OF COLUMBIA UNIVERISTY IN THE CITY OF NEW YORK, priority 2013, published 2016):
Entries after “also recorded” stand apart in the source; their conditions may differ.

Tests used:
[1] = tested on: layer V pyramidal neurons; experiment: Excitation-inhibition correlation, whole-cell recordings from slices of treated adult mice; assay type: in vivo
Experimental: All mice were treated with either WYE125132 or vehicle for a period of 2 weeks after which the animals were euthanized and thalamocortical slices were prepared. Briefly, animals were anesthetized, decapitated and the brain quickly placed into ice-cold dissection buffer containing (in mM): 75 sucrose, 87 NaCl, 2.5 KCl, 1.25 NaH2PO4, 0.5 CaCl2, 7 MgCl2 6H2O, 25 NaHCO3, 10 dextrose, bubbled with 95% O2/5% CO2 (pH 7.4). Slices (400 μm) were prepared with a vibratome (Leica, VT1200S), placed in 33-35° C. for artificial cerebrospinal fluid (ACSF, in mM: 124 NaCl, 2.5 KCl, 1.25 NaH2PO4, 2.5 CaCl2, 1.5 MgSO4 7H2O, 26 NaHCO3, and 10 dextrose) for <30 min; then returned to room temperature >1 hr before use. Slices were then transferred to the recording chamber and perfused (2.0-2.5 ml min-1) with oxygenated ACSF at 33-35° C. and given 30 min to stabilize. Somatic whole-cell recordings were made from layer 5 pyramidal cells in voltage and current clamp mode with a Multiclamp 700B amplifier (Molecular Devices). Selection was based on morphology and electrophysiological criteria. Patch pipettes (3-8MΩ) contained a current clamp solution. Data were filtered at 2 kHz, digitized at 10 kHz and analyzed with Clampfit. Cells were excluded from analysis if Ri or Rs changed by >25% over the course of the recording. Excitatory post-synaptic currents or potentials (EPSCs/Ps) were evoked by extracellular stimulation (0.01-1 ms, 1-10V) with a 4×1 array of electrodes placed in layer 4, and straddling the patched layer 5 neuron. Across mice we compared spontaneous and evoked inhibitory responses by clamping the membrane potential of the cell to sub-threshold levels. Furthermore, we compared inhibition generated by each stimulation electrode, to the corresponding amount of excitation when the cell was held at −80 mV. Lastly, we tested Spike-Timing Dependent Plasticity (STDP).
(§1) euthanized. For the electrophysiology and western blot rescue experiments, adult mice were gavaged for 14 consecutive days after which they were euthanized.
Whole cell recordings were made from layer V pyramidal cells of the temporal cortex. Focal extracellular stimulation was applied and excitatory and inhibitory currents were measured across various stimulation intensities to assess E:I balance. […]
recorded cell. […] We assessed this relation over multiple inputs onto the recorded postsynaptic neuron from different regions of the cortical brain slice, by systematically varying the intensity of extracellular stimulation, such that higher intensities evoke responses from larger subpopulations of presynaptic inputs (House et al., 2011). […]

[2] = tested on: phosphorylated ribosomal protein S6 (pS6); experiment: Immunoblot of phosphorylated S6 in cortex after WYE125132 treatment; assay type: in vivo; details: cortex of Cntnap2-/- and Cntnap2+/- mice, 14 consecutive days gavage 10 mg/kg
Experimental: (§2) Cntnap2 mutant and WT mice were obtained from heterozygous crossings and were born with the expected Mendelian frequencies. The three obtained genotypes were housed together. Mice were treated with p.o. gavaging once per day with either WYE125132 (10 mg/kg) or vehicle. All procedures involving animals were performed in accordance with the Columbia University/New York State Psychiatric Institute animal research committee.
as §1
(§3) Western blot analysis of mouse brain tissue and immunocytochemistry in human brain tissue was performed using standard methods.
We examined whether we can reverse the dramatic enlargement of the pyramidal cell somata by targeting the mTOR overactivation. To this end, mice were gavaged daily with WYE125132 from P12 until P33-36 after which their brains were harvested for further analysis.

[3] = tested on: glutamate receptor subunits GluR1, GluR2, NR1, NR2A, NR2B and mGluR5; experiment: Immunoblot of glutamate receptor subunits in PFC homogenates after treatment; assay type: in vivo, mice; details: for expression of glutamate receptor subunits altered in mutants: Cntnap2-/- and Cntnap2+/- mice aged 5-8 months
Experimental: as §1, §3
We also evaluated whether treatment with WYE126132 reverses the alterations in the expression of the glutamate receptor subunits found in Cntnap2 mutant mice. Mice aged 5-8 months were treated for consecutive days.

Cntnap2 mutant mice = experiment: Novel Object Recognition (NOR) test; assay type: in vivo; details: WYE125132-treated Cntnap2-/- mice, P<0.05
Experimental: as §2
WYE125132 (Chemscene) was administered by a daily p.o. gavaging in a volume of 10 ml/kg. For all behavioral experiments, dams were treated from PO to P12 after which individual pups were gavaged on a daily basis going forward. Mice also received drug treatment on the days of testing, at least 1 hour prior the experiment. For the two-photon and cell size quantitation studies, mice were gavaged from P12 to p35, after they were
Mice were marked with ear tagging. Experimenters were blinded to the genotype during testing. Behavioral tests were performed in the New York State Psychiatric Institute behavioral test core facility.
We examined whether we could reverse cognitive deficits in Cntnap2 mutant mice. We subjected Cntnap2 mutant mice to the Novel Object Recognition (NOR) test, a behavioral task that requires precise cognitive control. […]

## CNC(=O)Nc1ccc(-c2nc(N3CC4CCC(C3)O4)c3cnn(C4CCC5(CC4)OCCO5)c3n2)cc1 [WYE125132]
[1]; Caspr2-/- / Cntnap2 mutant mice treated with WYE125132 for 2 weeks
  correlation between excitation and inhibition (in words): high correlation between excitation and inhibition
[1]; WT littermates treated with WYE125132 for 2 weeks
  correlation between excitation and inhibition (in words): high correlation between excitation and inhibition
[1]; WYE125132-treated Cntnap2-/- mouse, single representative recording
  linear correlation coefficient r between excitation and inhibition (representative recording): 0.72
[1]; WYE125132-treated Cntnap2-/- mutant mice, 14 days gavage, n=12, error s.e.m.
  linear correlation coefficient r between excitation and inhibition (summary): 0.43±0.08
[2]
  phosphorylation of S6 (Phospho-S6: S6): reverses phosphorylation of S6 to levels observed in WT littermates; also recorded: completely reversed
[3]
  expression of glutamate receptor subunits altered in mutants: entirely reversed; also recorded: complete normalization of all glutamate receptor subunits
[3]; listed as WYE126132
  expression of glutamate receptor subunits altered in mutants: complete normalization of all glutamate receptor subunits
[3]; WT mice
  expression of glutamate receptor subunits in WT animals: no effects
Cntnap2 mutant mice
  deficit in the Novel Object Recognition test: rescue of this phenotype; also recorded: rescue of a deficit
